Measurements published in PubChem BioAssay (NCI).
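Assay format: 96-well plates, 48-hour exposure. At the GI50, growth is halved. At the TGI there is no net growth.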

What was measured:
Assay in all cases: NCI-60 cell line screen, 48 h
A498 renal = tested on: A498 renal
CAKI-1 renal = tested on: CAKI-1 renal
HL-60(TB) leukemia = tested on: HL-60(TB) leukemia
HT29 colon = tested on: HT29 colon
K-562 leukemia = tested on: K-562 leukemia
MDA-MB-231 breast = tested on: MDA-MB-231 breast
RPMI-8226 leukemia = tested on: RPMI-8226 leukemia
RXF 393 renal = tested on: RXF 393 renal
SK-MEL-5 melanoma = tested on: SK-MEL-5 melanoma
SN12C renal = tested on: SN12C renal

Compound | TGI (A498 renal) | TGI (CAKI-1 renal) | TGI (HL-60(TB) leukemia) | TGI (HT29 colon) | TGI (K-562 leukemia) | TGI (MDA-MB-231 breast) | TGI (RPMI-8226 leukemia) | TGI (RXF 393 renal) | TGI (SK-MEL-5 melanoma) | TGI (SN12C renal) | GI50 (A498 renal) | GI50 (CAKI-1 renal) | GI50 (HL-60(TB) leukemia) | GI50 (HT29 colon) | GI50 (K-562 leukemia) | GI50 (MDA-MB-231 breast) | GI50 (RPMI-8226 leukemia) | GI50 (RXF 393 renal) | GI50 (SK-MEL-5 melanoma) | GI50 (SN12C renal)
COC(=O)[C@]1(C)CCC[C@@]2(C)[C@@H]3C[C@@H]4[C@H]5C[C@@]3(CC[C@@H]21)C[C@@]45C | 34.1 µM | 30 µM | 17.8 µM | 27.6 µM | 19.1 µM | 29.9 µM | 27.7 µM | 38.2 µM | 34.3 µM | 33.5 µM | – | – | – | – | – | – | – | – | – | –
COc1ccc([C@@H](O)c2cc(-c3ncnc4cc(N5CCOCC5)ccc34)c(F)cc2Cl)nn1 | 0.943 µM | > 100 µM | 17.7 µM | 20.9 µM | > 100 µM | > 100 µM | 22.4 µM | 11.6 µM | 8.1 µM | > 100 µM | 0.228 µM | 1.99 µM | 0.36 µM | 1.97 µM | 3.78 µM | 4.96 µM | 3.58 µM | 0.678 µM | 1.99 µM | 2.45 µM
COc1cc(/C=C2\CN(C(=O)CCN3CCC(=NO)CC3)C/C(=C\c3cc(OC)c(OC)c(OC)c3)C2=O)cc(OC)c1OC | 2.07 µM | 2.34 µM | 1.05 µM | 1.51 µM | > 100 µM | 1.11 µM | 0.851 µM | 0.999 µM | 0.927 µM | 0.695 µM | 0.658 µM | 0.837 µM | 0.298 µM | 0.369 µM | 0.301 µM | 0.323 µM | 0.268 µM | 0.354 µM | 0.302 µM | 0.241 µM
